# Experimental data from patent US12435072B2, “Compounds” (Vicore Pharma AB, priority 2019, dated 2025).
# Where two headings read alike, the source gives them in different places.
# What was measured:
# [1] = Metabolic stability in pooled human liver microsomes; format: in vitro ADME; conditions: pooled human liver microsomes 0.5 mg/ml, 1 μM test compound, 37° C.
# Protocol: Pooled human liver microsomes in PBS at a concentration of 0.5 mg/ml was incubated with or without 1 mM NADPH for 70 min at 37° C. Test compound was added after 10 minutes to a final concentration of 1 μM. Samples were withdrawn at 0, 5, 15 and 60 minutes and added to test tubes containing acetonitrile, to stop the reaction, and with terfenadine, used as internal standard. After centrifugation at 10 000×g for 5 minutes the supernatant was diluted 1:1 with 1% formic acid. Samples were separated on a reverse phase column and detected by triple quadrupole MSMS (Agilant model 6540). The concentration of the parent compound at the different time points was measured with an external standard curve using terfenadine as internal standard and the initial metabolic rate in the presence or absence of NADPH calculated.
# CYP3A4&5 = assay: CYP inhibition in human liver microsomes, CYP3A4&5 (testosterone); format: in vitro ADME; conditions: probe testosterone, substrate testosterone, read-out: CYP3A4&5 testosterone Inh %
# Protocol: (§1) The following substrates were used: CYP1A phenacetin, CYP2B6 bupropion, CYP2C8 paclitaxel and amodiaquine, CYP2C9 diclofenac, CYP2C19 omeprazole, CYP2D6 dextromethorphan, CYP3A midazolam and testosterone. At the end of the incubation, the formation of metabolite was monitored by HPLC-MS/MS as the peak area response.
# CYP2C19 = target: T1, CYP2C19 (Homo sapiens, UniProt P33261); assay: CYP inhibition in human liver microsomes, CYP2C19; format: in vitro ADME; conditions: probe omeprazole, substrate omeprazole, read-out: CYP2C19 Inh %
# T1 construct: incubated with human liver microsomes; tissue Eurofins ITEMG232; host or cells: human liver microsomes
# T1 sequence (P33261 whole entry): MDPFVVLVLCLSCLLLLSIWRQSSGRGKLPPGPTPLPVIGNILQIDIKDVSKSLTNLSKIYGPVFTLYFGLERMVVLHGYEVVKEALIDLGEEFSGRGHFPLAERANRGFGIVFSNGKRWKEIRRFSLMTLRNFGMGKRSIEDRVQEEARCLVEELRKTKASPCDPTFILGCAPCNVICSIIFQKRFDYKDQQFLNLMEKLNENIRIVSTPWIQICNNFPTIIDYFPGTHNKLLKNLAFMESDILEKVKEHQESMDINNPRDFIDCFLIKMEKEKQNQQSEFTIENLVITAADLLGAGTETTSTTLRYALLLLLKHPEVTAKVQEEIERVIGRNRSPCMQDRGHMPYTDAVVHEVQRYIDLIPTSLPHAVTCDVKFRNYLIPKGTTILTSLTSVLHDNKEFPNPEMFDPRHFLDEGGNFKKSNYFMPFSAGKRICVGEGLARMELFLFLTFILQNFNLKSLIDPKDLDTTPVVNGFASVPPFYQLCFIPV
# Protocol: as §1
# CYP2B6 = target: T2, CYP2B6 (Homo sapiens, UniProt P20813); assay: CYP inhibition in human liver microsomes, CYP2B6; format: in vitro ADME; conditions: probe bupropion, substrate bupropion, read-out: CYP2B6 Inh %
# T2 construct: incubated with human liver microsomes; tissue Eurofins ITEMG232; host or cells: human liver microsomes
# T2 sequence (P20813 1-491): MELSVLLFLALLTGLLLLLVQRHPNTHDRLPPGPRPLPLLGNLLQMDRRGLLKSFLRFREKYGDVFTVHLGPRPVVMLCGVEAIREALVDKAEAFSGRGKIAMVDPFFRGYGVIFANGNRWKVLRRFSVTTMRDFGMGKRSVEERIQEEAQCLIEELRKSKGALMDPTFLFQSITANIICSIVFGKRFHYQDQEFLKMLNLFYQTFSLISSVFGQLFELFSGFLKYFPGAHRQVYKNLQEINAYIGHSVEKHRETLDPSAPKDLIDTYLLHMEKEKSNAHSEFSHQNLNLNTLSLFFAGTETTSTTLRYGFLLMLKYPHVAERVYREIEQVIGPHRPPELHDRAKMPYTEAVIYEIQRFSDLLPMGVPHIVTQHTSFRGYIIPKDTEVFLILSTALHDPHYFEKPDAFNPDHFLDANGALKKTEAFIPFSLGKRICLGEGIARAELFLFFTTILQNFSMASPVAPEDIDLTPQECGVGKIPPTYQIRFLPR
# Protocol: as §1
# CYP2D6 = target: T3, CYP2D6 (Homo sapiens, UniProt P10635); assay: CYP inhibition in human liver microsomes, CYP2D6; format: in vitro ADME; conditions: probe dextromethorphan, substrate dextromethorphan, read-out: CYP2D6 Inh %
# T3 construct: incubated with human liver microsomes; tissue Eurofins ITEMG232; host or cells: human liver microsomes
# T3 sequence (P10635 whole entry): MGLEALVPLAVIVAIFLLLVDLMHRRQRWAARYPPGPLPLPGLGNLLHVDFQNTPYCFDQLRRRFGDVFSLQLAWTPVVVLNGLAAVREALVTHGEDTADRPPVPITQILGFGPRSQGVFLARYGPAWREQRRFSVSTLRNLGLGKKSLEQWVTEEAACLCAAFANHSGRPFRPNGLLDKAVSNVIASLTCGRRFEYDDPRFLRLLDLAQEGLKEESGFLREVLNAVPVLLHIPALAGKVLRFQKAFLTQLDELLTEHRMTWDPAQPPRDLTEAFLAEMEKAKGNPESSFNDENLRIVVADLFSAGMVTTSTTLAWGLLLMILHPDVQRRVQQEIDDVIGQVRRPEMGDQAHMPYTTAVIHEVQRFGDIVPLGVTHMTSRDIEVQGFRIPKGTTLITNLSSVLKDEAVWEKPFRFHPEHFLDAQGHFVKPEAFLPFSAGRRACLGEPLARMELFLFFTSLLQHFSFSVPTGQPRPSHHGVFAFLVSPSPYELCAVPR
# Method in brief: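 Metabolite formation, quantified by HPLC-MS/MS peak area at the end of incubation, served as the read-out. Probe substrates in the microsomes were diclofenac (CYP2C9), dextromethorphan (CYP2D6), and paclitaxel or amodiaquine (CYP2C8).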
# [2] = target: T4, human recombinant AT2 receptor (Homo sapiens, UniProt P50052); assay: Binding to AT2 receptor, radiometric scintillation assay (Eurofins); conditions: ligand 125I CGP 42112A, tested at 1, 10, 100 and 1000 nM
# T4 construct: purchased Eurofins ITEM26
# T4 sequence (P50052 1-363): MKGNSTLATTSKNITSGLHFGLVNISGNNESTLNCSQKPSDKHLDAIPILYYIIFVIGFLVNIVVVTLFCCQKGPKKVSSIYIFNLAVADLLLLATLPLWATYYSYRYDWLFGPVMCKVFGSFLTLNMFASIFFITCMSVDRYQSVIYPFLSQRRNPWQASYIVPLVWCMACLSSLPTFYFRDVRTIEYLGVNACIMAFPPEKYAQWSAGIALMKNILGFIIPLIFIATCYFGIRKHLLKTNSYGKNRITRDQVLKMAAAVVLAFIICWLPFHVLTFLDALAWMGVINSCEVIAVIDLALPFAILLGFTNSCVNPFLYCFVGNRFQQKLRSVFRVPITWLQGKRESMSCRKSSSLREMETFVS
# Protocol: (§2) Compounds were evaluated for binding to the human recombinant AT2 and AT1 receptor according to Eurofins protocol ITEM26 and ITEM24 using a radiometric scintillation assay.
# CYP3A4 = CYP3A4 (Homo sapiens, UniProt P08684); assay: CYP inhibition in human liver microsomes, CYP3A4 (midazolam); format: in vitro ADME; design: incubated with human liver microsomes; tissue Eurofins ITEMG232; host or cells: human liver microsomes; conditions: probe midazolam, substrate midazolam, read-out: CYP3A4 midazolam Inh %
# Sequence of CYP3A4 (P08684 whole entry): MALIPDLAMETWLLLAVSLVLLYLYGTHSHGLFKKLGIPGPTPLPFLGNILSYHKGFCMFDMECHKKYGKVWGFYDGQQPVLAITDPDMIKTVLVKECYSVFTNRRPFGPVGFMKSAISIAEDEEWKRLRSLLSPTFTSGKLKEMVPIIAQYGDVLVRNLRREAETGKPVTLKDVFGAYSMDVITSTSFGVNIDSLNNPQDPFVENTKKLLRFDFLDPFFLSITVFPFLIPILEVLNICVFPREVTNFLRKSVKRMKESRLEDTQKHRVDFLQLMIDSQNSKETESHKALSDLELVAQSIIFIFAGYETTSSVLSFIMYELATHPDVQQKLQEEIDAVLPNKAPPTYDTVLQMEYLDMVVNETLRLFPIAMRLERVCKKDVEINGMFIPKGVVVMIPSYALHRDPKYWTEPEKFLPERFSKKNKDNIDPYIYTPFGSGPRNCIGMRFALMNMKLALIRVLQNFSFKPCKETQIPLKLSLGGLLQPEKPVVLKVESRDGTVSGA
# Protocol: as §1
# [3] = target: T5, human recombinant AT1 receptor (Homo sapiens, UniProt P30556); assay: Binding to AT1 receptor, radiometric scintillation assay (Eurofins); conditions: ligand 125I(sar1,Ile8)-AT-II, tested at 1 and 10 μM
# T5 construct: purchased Eurofins ITEM24
# T5 sequence (P30556 1-359): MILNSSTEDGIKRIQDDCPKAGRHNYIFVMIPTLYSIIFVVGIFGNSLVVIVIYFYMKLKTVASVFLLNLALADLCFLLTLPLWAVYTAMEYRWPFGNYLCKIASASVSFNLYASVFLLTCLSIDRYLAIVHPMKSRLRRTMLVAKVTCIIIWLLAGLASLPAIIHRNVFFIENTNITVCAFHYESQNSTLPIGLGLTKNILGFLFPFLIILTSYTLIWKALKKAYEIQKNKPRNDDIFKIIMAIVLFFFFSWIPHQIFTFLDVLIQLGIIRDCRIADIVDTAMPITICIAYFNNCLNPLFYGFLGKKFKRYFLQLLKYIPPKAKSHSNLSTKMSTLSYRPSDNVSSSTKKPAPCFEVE
# Protocol: as §2
# [4] = with 1 mM NADPH, read-out: T1/2, + NaDPH
# [5] = without NADPH, read-out: T1/2, no NaDPH
"half-life at 1 μM [1, 4] [min]","half-life at 1 μM [1, 5] [min]",inhibition at 10 µM (CYP3A4&5) [%],inhibition at 10 µM (CYP2C19) [%],inhibition at 10 µM (CYP2B6) [%],inhibition at 10 µM (CYP2D6) [%],IC50 [2] [µM],inhibition at 10 µM (CYP3A4) [%],IC50 [3] [µM],SMILES
60,> 60,27,56,28,10,0.0086,18,16,"Cc1nccn1Cc1ccc(-c2cc(CC(C)C)sc2S(=O)(=O)NC(=O)NCC(C)C)cc1F.O=C(O)C(F)(F)F [Example 39, 1-[(3-{3-fluoro-4-[(2-methyl-1H-imidazol-1-yl)methyl]phenyl}-5-(2-methylpropyl)thiophen-2-yl)sulfonyl]-3-(2-methylpropyl)urea trifluoroacetic acid]"
4,> 60,63,80,54,47,0.0077,85,17,"Cc1nccn1Cc1ccc(-c2cc(CC(C)C)sc2S(=O)(=O)NC(=O)NCC2CCC(F)(F)CC2)cc1F.O=C(O)C(F)(F)F [Example 40, 1-[(4,4-difluorocyclohexyl)methyl]-3-[(3-{3-fluoro-4-[(2-methyl-1H-imidazol-1-yl)methyl]phenyl}-5-(2-methylpropyl)thiophen-2-yl)sulfonyl]urea trifluoroacetic acid]"
43,> 60,10,53,30,12,0.0049,-5,4,"CC(C)Cc1cc(-c2ccc(Cn3ccnc3C(C)C)c(F)c2)c(S(=O)(=O)NC(=O)NCCC(F)(F)F)s1.O=C(O)C(F)(F)F [Example 41, 1-{[3-(3-fluoro-4-{[2-(propan-2-yl)-1H-imidazol-1-yl]methyl}phenyl)-5-(2-methylpropyl)thiophen-2-yl]sulfonyl}-3-(3,3,3-trifluoropropyl)urea trifluoroacetic acid]"

# More lines, now with the values behind:
SMILES,"half-life at 1 μM [1, 4] [min]","half-life at 1 μM [1, 5] [min]",inhibition at 10 µM (CYP3A4&5) [%],inhibition at 10 µM (CYP2C19) [%],inhibition at 10 µM (CYP2B6) [%],inhibition at 10 µM (CYP2D6) [%],IC50 [2] [µM],inhibition at 10 µM (CYP3A4) [%],IC50 [3] [µM]
"CCCNC(=O)NS(=O)(=O)c1sc(CC(C)C)cc1-c1ccc(Cn2ccnc2CC)c(F)c1.O=C(O)C(F)(F)F [Example 33, 1-[(3-{4-[(2-ethyl-1H-imidazol-1-yl)methyl]-3-fluorophenyl}-5-(2-methylpropyl)thiophen-2-yl)sulfonyl]-3-propylurea trifluoroacetic acid]",> 60,> 60,11,26,37,18,0.0051,-37,19
"Cc1nccn1Cc1ccc(-c2cc(CC(C)C)sc2S(=O)(=O)NC(=O)NCc2ccc(F)c(F)c2)cc1F.O=C(O)C(F)(F)F [Example 34, 1-[(3,4-difluorophenyl)methyl]-3-[(3-{3-fluoro-4-[(2-methyl-1H-imidazol-1-yl)methyl]phenyl}-5-(2-methylpropyl)thiophen-2-yl)sulfonyl]urea trifluoroacetic acid]",6,> 60,60,80,57,40,0.0052,74,21
"Cc1nccn1Cc1ccc(-c2cc(CC(C)C)sc2S(=O)(=O)NC(=O)NCc2cccs2)cc1F.O=C(O)C(F)(F)F [Example 35, 1-[(3-{3-fluoro-4-[(2-methyl-1H-imidazol-1-yl)methyl]phenyl}-5-(2-methylpropyl)thiophen-2-yl)sulfonyl]-3-[(thiophen-2-yl)methyl]urea trifluoroacetic acid]",45,> 60,25,60,46,45,0.00063,26,8
"Cc1nccn1Cc1ccc(-c2cc(CC(C)C)sc2S(=O)(=O)NC(=O)NCc2cc(Cl)ccn2)cc1F.O=C(O)C(F)(F)F [Example 38, 1-[(4-chloropyridin-2-yl)methyl]-3-[(3-{3-fluoro-4-[(2-methyl-1H-imidazol-1-yl)methyl]phenyl}-5-(2-methylpropyl)thiophen-2-yl)sulfonyl]urea trifluoroacetic acid]",27,> 60,13,58,25,19,0.0166,22,25
